Results reported in US10351548B2, “2-oxo-1,2-dihydropyridine-3-carboxamide compounds and their use as inhibitors of PDK1” (INTERNATIONAL SOCIETY FOR DRUG DEVELOPMENT S.R.L., priority 2015, dated 2019).
Where two headings read alike, the source gives them in different places.

Legend:
Test in all cases: IB35 kinases profiling at 100 nM (ZLYTE)
Assay type in all cases: biochemical
MAPK3 (ERK1) = MAPK3 (ERK1) (Homo sapiens (Human), UniProt P27361); details: IB35 100 nM, ATP Km app
Text: (§1) The results are reported below

MAPK8 (JNK1) = MAPK8 (JNK1) (Homo sapiens (Human), UniProt P45983); details: IB35 100 nM, ATP 100
Chain of MAPK8 (JNK1) (P45983 whole entry, species assumed): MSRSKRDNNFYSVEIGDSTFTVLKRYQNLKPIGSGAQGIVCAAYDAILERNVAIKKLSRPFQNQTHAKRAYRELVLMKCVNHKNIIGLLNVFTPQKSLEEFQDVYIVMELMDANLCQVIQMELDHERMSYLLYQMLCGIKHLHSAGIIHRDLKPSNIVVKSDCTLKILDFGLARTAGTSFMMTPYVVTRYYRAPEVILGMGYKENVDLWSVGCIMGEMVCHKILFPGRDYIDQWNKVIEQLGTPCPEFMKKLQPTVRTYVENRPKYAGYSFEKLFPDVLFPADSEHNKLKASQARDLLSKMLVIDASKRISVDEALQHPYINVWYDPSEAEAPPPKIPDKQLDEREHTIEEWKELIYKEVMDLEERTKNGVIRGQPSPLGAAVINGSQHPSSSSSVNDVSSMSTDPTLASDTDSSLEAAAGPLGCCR
Text: as §1

GRK5 = GRK5 (Homo sapiens (Human), UniProt P34947); details: IB35 100 nM, ATP Km app
Text: as §1

JAK1 = JAK1 (Homo sapiens (Human), UniProt P23458); details: IB35 100 nM, ATP Km app
Text: as §1

BRAF = BRAF (Homo sapiens (Human), UniProt P15056); details: IB35 100 nM, ATP 100
Text: as §1

AMPK A1/B1/G1 = AMPK A1/B1/G1 (Homo sapiens (Human), UniProt Q13131); details: IB35 100 nM, ATP Km app
Chain of AMPK A1/B1/G1 (Q13131 whole entry): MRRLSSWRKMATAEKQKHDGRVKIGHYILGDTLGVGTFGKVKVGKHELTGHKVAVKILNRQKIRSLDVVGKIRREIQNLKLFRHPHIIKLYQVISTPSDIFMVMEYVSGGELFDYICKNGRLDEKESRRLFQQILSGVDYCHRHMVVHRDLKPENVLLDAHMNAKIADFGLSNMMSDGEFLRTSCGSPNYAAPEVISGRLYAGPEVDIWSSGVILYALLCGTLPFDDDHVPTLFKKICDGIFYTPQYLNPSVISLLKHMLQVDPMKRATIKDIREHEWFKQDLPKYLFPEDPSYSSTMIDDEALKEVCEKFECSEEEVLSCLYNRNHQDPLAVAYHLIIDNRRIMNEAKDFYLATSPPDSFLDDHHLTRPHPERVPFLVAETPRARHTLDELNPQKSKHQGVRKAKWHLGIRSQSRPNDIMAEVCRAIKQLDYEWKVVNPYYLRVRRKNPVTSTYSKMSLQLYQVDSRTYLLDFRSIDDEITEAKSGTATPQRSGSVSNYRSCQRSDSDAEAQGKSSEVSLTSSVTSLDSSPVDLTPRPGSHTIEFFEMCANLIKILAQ
Chain of AMPK A1/B1/G1 (Q9Y478 whole entry partner): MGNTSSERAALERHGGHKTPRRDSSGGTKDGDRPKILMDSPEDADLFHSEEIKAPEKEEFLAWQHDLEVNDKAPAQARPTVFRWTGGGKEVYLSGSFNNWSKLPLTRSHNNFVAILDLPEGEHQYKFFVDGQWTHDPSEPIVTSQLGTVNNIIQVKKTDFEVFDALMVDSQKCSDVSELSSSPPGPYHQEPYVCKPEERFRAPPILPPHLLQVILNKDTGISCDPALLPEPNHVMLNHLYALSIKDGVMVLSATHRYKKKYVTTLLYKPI
Chain of AMPK A1/B1/G1 (P54619 whole entry partner): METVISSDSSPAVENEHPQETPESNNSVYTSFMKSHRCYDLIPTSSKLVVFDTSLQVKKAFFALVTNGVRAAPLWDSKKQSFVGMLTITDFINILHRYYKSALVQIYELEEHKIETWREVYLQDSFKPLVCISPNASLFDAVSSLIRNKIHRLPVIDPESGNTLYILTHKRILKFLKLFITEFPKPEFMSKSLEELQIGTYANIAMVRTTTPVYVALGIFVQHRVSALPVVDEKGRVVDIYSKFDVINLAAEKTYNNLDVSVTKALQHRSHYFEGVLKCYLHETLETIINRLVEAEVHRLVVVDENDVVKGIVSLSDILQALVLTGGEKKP
Text: as §1

AURKA (Aurora A) = AURKA (Aurora A) (Homo sapiens (Human), UniProt O14965); details: IB35 100 nM, ATP Km app
Text: as §1

[1] = target: MAPK14 (p38 alpha) Direct (Homo sapiens (Human), UniProt Q16539); details: IB35 100 nM, ATP Km app
Text: as §1

MARK1 (MARK) = MARK1 (MARK) (Homo sapiens (Human), UniProt Q9P0L2); details: IB35 100 nM, ATP Km app
Chain of MARK1 (MARK) (Q9P0L2 whole entry, species assumed): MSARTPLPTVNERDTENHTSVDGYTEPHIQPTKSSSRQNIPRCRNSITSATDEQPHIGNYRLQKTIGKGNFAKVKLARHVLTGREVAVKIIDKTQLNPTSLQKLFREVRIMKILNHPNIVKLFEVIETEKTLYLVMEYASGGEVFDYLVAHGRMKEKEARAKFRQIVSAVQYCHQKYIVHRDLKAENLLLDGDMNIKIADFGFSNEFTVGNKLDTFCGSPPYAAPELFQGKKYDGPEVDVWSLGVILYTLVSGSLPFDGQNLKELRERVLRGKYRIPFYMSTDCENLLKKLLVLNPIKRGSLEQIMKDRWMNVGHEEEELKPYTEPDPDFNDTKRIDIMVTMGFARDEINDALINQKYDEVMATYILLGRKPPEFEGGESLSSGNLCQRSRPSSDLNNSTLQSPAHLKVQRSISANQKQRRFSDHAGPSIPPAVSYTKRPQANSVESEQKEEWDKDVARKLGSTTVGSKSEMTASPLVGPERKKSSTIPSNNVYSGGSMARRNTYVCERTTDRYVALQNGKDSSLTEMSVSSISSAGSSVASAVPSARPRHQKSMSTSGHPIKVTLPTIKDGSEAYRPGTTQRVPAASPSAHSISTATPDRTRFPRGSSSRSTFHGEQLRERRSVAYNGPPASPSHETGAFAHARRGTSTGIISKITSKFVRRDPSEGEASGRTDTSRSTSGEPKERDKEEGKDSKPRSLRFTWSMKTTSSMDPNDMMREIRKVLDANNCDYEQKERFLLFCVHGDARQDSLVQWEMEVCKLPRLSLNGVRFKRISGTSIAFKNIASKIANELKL
Text: as §1

GSK3A (GSK3 alpha) = GSK3A (GSK3 alpha) (Homo sapiens (Human), UniProt P49840); details: IB35 100 nM, ATP Km app
Text: as §1

CDK5/p35 = CDK5/p35 (Homo sapiens (Human), UniProt Q00535); details: IB35 100 nM, ATP Km app
Text: as §1

AKT2 (PKB beta) = AKT2 (PKB beta) (Homo sapiens (Human), UniProt P31751); details: IB35 100 nM, ATP Km app
Text: as §1

ABL1 = ABL1 (Homo sapiens (Human), UniProt P00519); details: IB35 100 nM, ATP Km app
Text: as §1

CHEK1 (CHK1) = CHEK1 (CHK1) (Homo sapiens (Human), UniProt O14757); details: IB35 100 nM, ATP Km app
Text: as §1

PRKCB1 (PKC beta I) = PRKCB1 (PKC beta I) (Homo sapiens (Human), UniProt P05771); details: IB35 100 nM, ATP Km app
Chain of PRKCB1 (PKC beta I) (P05771 whole entry, species assumed): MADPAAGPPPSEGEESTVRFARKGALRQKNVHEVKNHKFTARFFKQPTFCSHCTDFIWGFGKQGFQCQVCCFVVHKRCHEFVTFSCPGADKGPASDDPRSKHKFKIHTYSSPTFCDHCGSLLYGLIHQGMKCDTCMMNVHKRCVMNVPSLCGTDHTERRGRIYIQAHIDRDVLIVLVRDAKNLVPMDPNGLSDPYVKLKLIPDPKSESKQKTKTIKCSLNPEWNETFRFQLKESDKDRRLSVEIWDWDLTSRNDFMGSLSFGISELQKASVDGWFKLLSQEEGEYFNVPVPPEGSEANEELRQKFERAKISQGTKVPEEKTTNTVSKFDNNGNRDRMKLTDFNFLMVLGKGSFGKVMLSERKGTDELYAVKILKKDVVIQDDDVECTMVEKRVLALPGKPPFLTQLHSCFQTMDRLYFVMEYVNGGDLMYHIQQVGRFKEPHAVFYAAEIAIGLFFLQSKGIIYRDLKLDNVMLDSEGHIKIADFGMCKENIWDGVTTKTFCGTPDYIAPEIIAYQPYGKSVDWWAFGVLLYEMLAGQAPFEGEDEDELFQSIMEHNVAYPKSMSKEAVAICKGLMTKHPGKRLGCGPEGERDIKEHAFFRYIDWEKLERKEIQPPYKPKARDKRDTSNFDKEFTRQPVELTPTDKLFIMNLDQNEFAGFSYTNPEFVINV
Text: as §1

PRKCZ (PKC zeta) = PRKCZ (PKC zeta) (Homo sapiens (Human), UniProt Q05513); details: IB35 100 nM, ATP Km app
Text: as §1

BTK = BTK (Homo sapiens (Human), UniProt Q06187); details: IB35 100 nM, ATP Km app
Text: as §1

CHEK2 (CHK2) = CHEK2 (CHK2) (Homo sapiens (Human), UniProt O96017); details: IB35 100 nM, ATP Km app
Text: as §1

MAPK9 (JNK2) = MAPK9 (JNK2) (Homo sapiens (Human), UniProt P45984); details: IB35 100 nM, ATP 100
Text: as §1

CSNK1G1 (CK1 gamma 1) = CSNK1G1 (CK1 gamma 1) (Homo sapiens (Human), UniProt Q9HCP0); details: IB35 100 nM, ATP Km app
Chain of CSNK1G1 (CK1 gamma 1) (Q9HCP0 whole entry, species assumed): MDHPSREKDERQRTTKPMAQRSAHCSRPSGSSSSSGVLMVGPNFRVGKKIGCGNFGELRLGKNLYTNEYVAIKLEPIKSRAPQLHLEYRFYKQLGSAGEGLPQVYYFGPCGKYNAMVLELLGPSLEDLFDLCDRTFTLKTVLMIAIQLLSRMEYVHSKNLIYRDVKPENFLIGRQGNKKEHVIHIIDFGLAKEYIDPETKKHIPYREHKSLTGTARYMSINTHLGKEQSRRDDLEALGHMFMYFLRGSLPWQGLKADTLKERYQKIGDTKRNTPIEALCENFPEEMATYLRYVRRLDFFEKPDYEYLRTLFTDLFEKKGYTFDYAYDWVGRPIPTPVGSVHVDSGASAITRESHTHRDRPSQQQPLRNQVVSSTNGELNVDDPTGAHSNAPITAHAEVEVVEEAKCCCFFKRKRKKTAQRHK
Text: as §1

AMPK A2/B1/G1 = AMPK A2/B1/G1 (Homo sapiens (Human), UniProt P54646); details: IB35 100 nM, ATP Km app
Text: as §1

CAMK2A (CaMKII alpha) = CAMK2A (CaMKII alpha) (Homo sapiens (Human), UniProt Q9UQM7); details: IB35 100 nM, ATP Km app
Text: as §1

CDK5/p25 = CDK5/p25 (Homo sapiens (Human), UniProt Q00535); details: IB35 100 nM, ATP Km app
Text: as §1

PRKCE (PKC epsilon) = PRKCE (PKC epsilon) (Homo sapiens (Human), UniProt Q02156); details: IB35 100 nM, ATP Km app
Chain of PRKCE (PKC epsilon) (Q02156 whole entry, species assumed): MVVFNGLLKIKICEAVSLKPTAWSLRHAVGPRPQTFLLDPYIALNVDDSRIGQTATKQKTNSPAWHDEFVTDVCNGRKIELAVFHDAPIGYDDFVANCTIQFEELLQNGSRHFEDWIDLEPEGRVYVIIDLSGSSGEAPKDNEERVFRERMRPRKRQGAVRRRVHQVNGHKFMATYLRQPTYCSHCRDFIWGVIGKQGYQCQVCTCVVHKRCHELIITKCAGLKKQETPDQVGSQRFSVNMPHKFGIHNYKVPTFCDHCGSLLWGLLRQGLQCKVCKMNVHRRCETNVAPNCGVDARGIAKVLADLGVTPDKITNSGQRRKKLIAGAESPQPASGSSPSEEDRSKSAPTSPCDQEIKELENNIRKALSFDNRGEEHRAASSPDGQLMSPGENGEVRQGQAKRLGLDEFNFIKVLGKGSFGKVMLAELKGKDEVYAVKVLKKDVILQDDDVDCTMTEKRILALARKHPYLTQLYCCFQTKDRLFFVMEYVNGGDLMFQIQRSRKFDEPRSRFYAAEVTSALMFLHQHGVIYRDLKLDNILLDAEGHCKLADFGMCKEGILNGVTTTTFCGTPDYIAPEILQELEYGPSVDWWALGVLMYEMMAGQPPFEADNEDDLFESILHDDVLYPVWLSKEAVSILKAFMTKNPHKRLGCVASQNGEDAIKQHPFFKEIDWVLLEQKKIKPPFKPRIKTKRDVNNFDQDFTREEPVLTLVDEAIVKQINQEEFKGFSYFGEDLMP
Text: as §1

GSK3B (GSK3 beta) = GSK3B (GSK3 beta) (Homo sapiens (Human), UniProt P49841); details: IB35 100 nM, ATP Km app
Text: as §1

PRKACA (PKA) = PRKACA (PKA) (Homo sapiens (Human), UniProt P17612); details: IB35 100 nM, ATP Km app
Text: as §1

MAP2K2 (MEK2) = MAP2K2 (MEK2) (Homo sapiens (Human), UniProt P36507); details: IB35 100 nM, ATP 100
Chain of MAP2K2 (MEK2) (P36507 whole entry, species assumed): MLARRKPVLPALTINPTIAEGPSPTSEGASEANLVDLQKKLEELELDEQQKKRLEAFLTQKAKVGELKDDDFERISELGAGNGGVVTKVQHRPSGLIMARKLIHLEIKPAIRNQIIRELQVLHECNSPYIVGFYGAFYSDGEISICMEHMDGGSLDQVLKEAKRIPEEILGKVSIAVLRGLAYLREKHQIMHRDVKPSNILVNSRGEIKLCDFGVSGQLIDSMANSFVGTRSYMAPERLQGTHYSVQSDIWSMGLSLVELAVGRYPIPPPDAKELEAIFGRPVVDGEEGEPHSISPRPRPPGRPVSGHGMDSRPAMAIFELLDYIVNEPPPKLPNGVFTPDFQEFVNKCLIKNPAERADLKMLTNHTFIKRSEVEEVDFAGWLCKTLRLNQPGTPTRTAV
Text: as §1

Chain of MAPK3 (ERK1) (P27361 whole entry, species assumed): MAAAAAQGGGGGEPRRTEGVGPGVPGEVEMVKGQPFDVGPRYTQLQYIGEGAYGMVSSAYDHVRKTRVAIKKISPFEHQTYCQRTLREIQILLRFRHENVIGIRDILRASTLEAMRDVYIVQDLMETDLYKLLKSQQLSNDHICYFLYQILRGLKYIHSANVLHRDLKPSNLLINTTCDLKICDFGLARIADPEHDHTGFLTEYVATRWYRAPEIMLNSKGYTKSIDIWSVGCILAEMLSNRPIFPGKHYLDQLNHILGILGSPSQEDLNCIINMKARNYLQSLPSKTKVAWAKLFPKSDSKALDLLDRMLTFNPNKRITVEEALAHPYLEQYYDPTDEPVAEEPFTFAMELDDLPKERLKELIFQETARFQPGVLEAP

In the case of `O=C(CNC(=O)c1cccn(Cc2ccc(F)c(F)c2)c1=O)Nc1ccc2c(c1)/C(=C/c1cnc[nH]1)C(=O)N2` [IB35, (Z)—N-(2-((3-((1H-imidazol-5-yl)methylene)-2-oxoindolin-5-yl)amino)-2-oxoethyl)-1-(3,4-difluorobenzyl)-2-oxo-1,2-dihydro pyridine-3-carboxamide], the inhibition at 0.1 µM (MAPK3 (ERK1); read-out: % Inhibition 1) is reported as -8%, the inhibition at 0.1 µM (MAPK3 (ERK1); read-out: % Inhibition 2) is reported as 1% and the inhibition at 0.1 µM (MAPK3 (ERK1); read-out: % Inhibition Avg) is reported as -3%. It also gave an inhibition at 0.1 µM (MAPK8 (JNK1); read-out: % Inhibition 1) of 4%, an inhibition at 0.1 µM (MAPK8 (JNK1); read-out: % Inhibition 2) of 21% and an inhibition at 0.1 µM (MAPK8 (JNK1); read-out: % Inhibition Avg) of 12%. It also gave an inhibition at 0.1 µM (GRK5; read-out: % Inhibition 1) of -7%, an inhibition at 0.1 µM (GRK5; read-out: % Inhibition 2) of 0% and an inhibition at 0.1 µM (GRK5; read-out: % Inhibition Avg) of -4%. The inhibition at 0.1 µM (JAK1; read-out: % Inhibition 1) was -10%, the inhibition at 0.1 µM (JAK1; read-out: % Inhibition 2) was -6% and the inhibition at 0.1 µM (JAK1; read-out: % Inhibition Avg) was -8%. The inhibition at 0.1 µM (BRAF; read-out: % Inhibition 1) was 16%, the inhibition at 0.1 µM (BRAF; read-out: % Inhibition 2) was 17% and the inhibition at 0.1 µM (BRAF; read-out: % Inhibition Avg) was 17%. The inhibition at 0.1 µM (AMPK A1/B1/G1; read-out: % Inhibition 1) was 8%, the inhibition at 0.1 µM (AMPK A1/B1/G1; read-out: % Inhibition 2) was 7% and the inhibition at 0.1 µM (AMPK A1/B1/G1; read-out: % Inhibition Avg) was 7%. For the same molecule, the inhibition at 0.1 µM (AURKA (Aurora A); read-out: % Inhibition 1) was 37%, the inhibition at 0.1 µM (AURKA (Aurora A); read-out: % Inhibition 2) was 38% and the inhibition at 0.1 µM (AURKA (Aurora A); read-out: % Inhibition Avg) was 38%. For the same molecule, the inhibition at 0.1 µM ([1]; read-out: % Inhibition 1) was 2%, the inhibition at 0.1 µM ([1]; read-out: % Inhibition 2) was 4% and the inhibition at 0.1 µM ([1]; read-out: % Inhibition Avg) was 3%. For the same molecule, the inhibition at 0.1 µM (MARK1 (MARK); read-out: % Inhibition 1) was 20%, the inhibition at 0.1 µM (MARK1 (MARK); read-out: % Inhibition 2) was 13% and the inhibition at 0.1 µM (MARK1 (MARK); read-out: % Inhibition Avg) was 17%. The inhibition at 0.1 µM (GSK3A (GSK3 alpha); read-out: % Inhibition 1) was 43%, the inhibition at 0.1 µM (GSK3A (GSK3 alpha); read-out: % Inhibition 2) was 43% and the inhibition at 0.1 µM (GSK3A (GSK3 alpha); read-out: % Inhibition Avg) was 43%. It also gave an inhibition at 0.1 µM (CDK5/p35; read-out: % Inhibition 1) of -2%, an inhibition at 0.1 µM (CDK5/p35; read-out: % Inhibition 2) of 6% and an inhibition at 0.1 µM (CDK5/p35; read-out: % Inhibition Avg) of 2%. It also gave an inhibition at 0.1 µM (AKT2 (PKB beta); read-out: % Inhibition 1) of 0%, an inhibition at 0.1 µM (AKT2 (PKB beta); read-out: % Inhibition 2) of -9% and an inhibition at 0.1 µM (AKT2 (PKB beta); read-out: % Inhibition Avg) of -4%. The inhibition at 0.1 µM (ABL1; read-out: % Inhibition 1) was 17%, the inhibition at 0.1 µM (ABL1; read-out: % Inhibition 2) was 12% and the inhibition at 0.1 µM (ABL1; read-out: % Inhibition Avg) was 14%. It also gave an inhibition at 0.1 µM (CHEK1 (CHK1); read-out: % Inhibition 1) of 10%, an inhibition at 0.1 µM (CHEK1 (CHK1); read-out: % Inhibition 2) of 2% and an inhibition at 0.1 µM (CHEK1 (CHK1); read-out: % Inhibition Avg) of 6%. The inhibition at 0.1 µM (PRKCB1 (PKC beta I); read-out: % Inhibition 1) was -10%, the inhibition at 0.1 µM (PRKCB1 (PKC beta I); read-out: % Inhibition 2) was -10% and the inhibition at 0.1 µM (PRKCB1 (PKC beta I); read-out: % Inhibition Avg) was -10%. For the same molecule, the inhibition at 0.1 µM (PRKCZ (PKC zeta); read-out: % Inhibition 1) was -3%, the inhibition at 0.1 µM (PRKCZ (PKC zeta); read-out: % Inhibition 2) was -2% and the inhibition at 0.1 µM (PRKCZ (PKC zeta); read-out: % Inhibition Avg) was -3%. For the same molecule, the inhibition at 0.1 µM (BTK; read-out: % Inhibition 1) was -4%, the inhibition at 0.1 µM (BTK; read-out: % Inhibition 2) was -2% and the inhibition at 0.1 µM (BTK; read-out: % Inhibition Avg) was -3%. The inhibition at 0.1 µM (CHEK2 (CHK2); read-out: % Inhibition 1) was 1%, the inhibition at 0.1 µM (CHEK2 (CHK2); read-out: % Inhibition 2) was 8% and the inhibition at 0.1 µM (CHEK2 (CHK2); read-out: % Inhibition Avg) was 4%. It also gave an inhibition at 0.1 µM (MAPK9 (JNK2); read-out: % Inhibition 1) of 3%, an inhibition at 0.1 µM (MAPK9 (JNK2); read-out: % Inhibition 2) of -5% and an inhibition at 0.1 µM (MAPK9 (JNK2); read-out: % Inhibition Avg) of -1%. The inhibition at 0.1 µM (CSNK1G1 (CK1 gamma 1); read-out: % Inhibition 1) was 3%, the inhibition at 0.1 µM (CSNK1G1 (CK1 gamma 1); read-out: % Inhibition 2) was 2% and the inhibition at 0.1 µM (CSNK1G1 (CK1 gamma 1); read-out: % Inhibition Avg) was 3%. For the same molecule, the inhibition at 0.1 µM (AMPK A2/B1/G1; read-out: % Inhibition 1) was 10%, the inhibition at 0.1 µM (AMPK A2/B1/G1; read-out: % Inhibition 2) was 11% and the inhibition at 0.1 µM (AMPK A2/B1/G1; read-out: % Inhibition Avg) was 10%. The inhibition at 0.1 µM (CAMK2A (CaMKII alpha); read-out: % Inhibition 1) was -1%, the inhibition at 0.1 µM (CAMK2A (CaMKII alpha); read-out: % Inhibition 2) was 2% and the inhibition at 0.1 µM (CAMK2A (CaMKII alpha); read-out: % Inhibition Avg) was 0%. It also gave an inhibition at 0.1 µM (CDK5/p25; read-out: % Inhibition 1) of -7%, an inhibition at 0.1 µM (CDK5/p25; read-out: % Inhibition 2) of -10% and an inhibition at 0.1 µM (CDK5/p25; read-out: % Inhibition Avg) of -8%. For the same molecule, the inhibition at 0.1 µM (PRKCE (PKC epsilon); read-out: % Inhibition 1) was 4%, the inhibition at 0.1 µM (PRKCE (PKC epsilon); read-out: % Inhibition 2) was 3% and the inhibition at 0.1 µM (PRKCE (PKC epsilon); read-out: % Inhibition Avg) was 3%. It also gave an inhibition at 0.1 µM (GSK3B (GSK3 beta); read-out: % Inhibition 1) of 23%, an inhibition at 0.1 µM (GSK3B (GSK3 beta); read-out: % Inhibition 2) of 25% and an inhibition at 0.1 µM (GSK3B (GSK3 beta); read-out: % Inhibition Avg) of 24%. For the same molecule, the inhibition at 0.1 µM (PRKACA (PKA); read-out: % Inhibition 1) was -5%, the inhibition at 0.1 µM (PRKACA (PKA); read-out: % Inhibition 2) was -5% and the inhibition at 0.1 µM (PRKACA (PKA); read-out: % Inhibition Avg) was -5%. For the same molecule, the inhibition at 0.1 µM (MAP2K2 (MEK2); read-out: % Inhibition 1) was 13%, the inhibition at 0.1 µM (MAP2K2 (MEK2); read-out: % Inhibition 2) was 6% and the inhibition at 0.1 µM (MAP2K2 (MEK2); read-out: % Inhibition Avg) was 9%.
